Where two headings read alike, the source gives them in different places.
Key:
[1] = system: HepG2; test: CellTiter-Glo cell viability, HepG2 (human hepatoma cell line); type: cell-based
Description: (§1) 15 g of the commercially available 1,3-dihydroxyacetone in the solid powder form was added into 100 mL of 5% glucose (infusion bottle), then filled into 100 bottles.
(§2) After digesting the cells and counting (counting suspended cells directly), the cells were diluted to 1.25×10^5 cells/ml, inoculated into a 384-well plate (5000 cells/well) with 40 μl per well, centrifuged at 1500 rpm for 1 min, placed into the incubator and incubated overnight.
(§3) The medicaments were diluted in gradient with a 5% glucose solution to 5×, respectively. Each well was dosed with 10 μl medicament, with 4 wells (n=4) for each concentration. The cell viability was measured with Luminescence Cell Viability Assay kit after incubating for 72 hours in an incubator.
(§4) CellTiter-Glo reagent was added into each well, the volume of which is the same as that of medium. It was shaked on a shaker for 5 min, centrifuged at 1500 rpm for 1 min, and incubated in the dark at room temperature for 15 min. Then the chemiluminescence was detected with BMG PHERAstar.
(§5) The cell viability was calculated by using the following formula: Cell viability (Viability %)=100%×(LUMsample to be measured−LUMblank)/(LUMsolvent control−LUMblank)
(§6) The curve of Log[concentration] versus cell viability was fitted using Prism 6 to calculate IC50 of sample for each cell line.

[2] = system: SH-SY5Y; test: CellTiter-Glo cell viability, SH-SY5Y (human neuroblastoma cell); type: cell-based
Description: as §1, §2, §3, §4, §5, §6

[3] = system: WIL2-S; test: CellTiter-Glo cell viability, WIL2-S (human B lymphocyte); type: cell-based
Description: as §1, §2, §3, §4, §5, §6

[4] = system: BEL-7402; test: CellTiter-Glo cell viability, BEL-7402 (human hepatoma cell line); type: cell-based
Description: as §1, §2, §3, §4, §5, §6

[5] = system: RPMI8226; test: CellTiter-Glo cell viability, RPMI8226 (multiple myeloma); type: cell-based
Description: as §1, §2, §3, §4, §5, §6

[6] = system: SMMC-7721; test: CellTiter-Glo cell viability, SMMC-7721 (human hepatoma cell line); type: cell-based
Description: as §1, §2, §3, §4, §5, §6

[7] = system: SW480; test: CellTiter-Glo cell viability, SW480 (human colorectal cancer cell); type: cell-based
Description: as §1, §2, §3, §4, §5, §6

[8] = system: T24; test: CellTiter-Glo cell viability, T24 (human bladder transitional cell carcinoma cell); type: cell-based
Description: as §1, §2, §3, §4, §5, §6

[9] = system: A549; test: CellTiter-Glo cell viability, A549 (human non-small cell lung cancer cell); type: cell-based
Description: as §1, §2, §3, §4, §5, §6

[10] = system: TT; test: CellTiter-Glo cell viability, TT (human thyroid cancer cell); type: cell-based; conditions: 72 hours
Description: as §1, §2, §3, §4, §5, §6

[11] = system: A431; test: CellTiter-Glo cell viability, A431 (human cutaneous squamous cell carcinoma); type: cell-based
Description: as §1, §2, §3, §4, §5, §6

[12] = system: A375; test: CellTiter-Glo cell viability, A375 (human malignant melanoma cell); type: cell-based
Description: as §1, §2, §3, §4, §5, §6

[13] = system: A673; test: CellTiter-Glo cell viability, A673 (human rhabdomyoma cell); type: cell-based
Description: as §1, §2, §3, §4, §5, §6

[14] = system: PANC-1; test: CellTiter-Glo cell viability, PANC-1 (human pancreatic cancer cell line); type: cell-based
Description: as §1, §2, §3, §4, §5, §6

[15] = system: A2780; test: CellTiter-Glo cell viability, A2780 (human ovarian cancer cell line); type: cell-based
Description: as §1, §2, §3, §4, §5, §6

[16] = system: KB; test: CellTiter-Glo cell viability, KB (human oral cancer cell line); type: cell-based
Description: as §1, §2, §3, §4, §5, §6

[17] = system: U87MG; test: CellTiter-Glo cell viability, U87MG (human spongioblastoma cell line); type: cell-based
Description: as §1, §2, §3, §4, §5, §6

[18] = system: Calu-6; test: CellTiter-Glo cell viability, Calu-6 (human degenerative cancer cell); type: cell-based
Description: as §1, §2, §3, §4, §5, §6

[19] = system: HCC1937; test: CellTiter-Glo cell viability, HCC1937 (human breast cancer cell); type: cell-based
Description: as §1, §2, §3, §4, §5, §6

[20] = system: HT29; test: CellTiter-Glo cell viability, HT29 (human colon cancer cell line); type: cell-based
Description: as §1, §2, §3, §4, §5, §6

[21] = system: TF1-α; test: CellTiter-Glo cell viability, TF1-α (human erythroleukemia cell); type: cell-based
Description: as §1, §2, §3, §4, §5, §6

[22] = system: human large cell lung cancer H460 cell transplantation tumor; test: H460 cell transplantation tumor model in naked mice; type: in vivo, Balb/c-nude naked mice; conditions: for TV (mm^3) D1 / Body weight (g) D1: D1 (first day of administration); for Effect of tumor inhibition: vs blank; for Tumor Weight TW: tumors taken out at sacrifice on 22th day; for Tumor Weight Inhibition Rate IR (%): vs blank control group tumor weight
Description: Naked mice were subcutaneously inoculated with H460 cells (human large cell lung cancer cell line). When tumors grew to about 100 mm^3, 36 naked mice with similar tumor volume and good shape were selected from 70 naked mice, divided into 6 groups with 6 animals in each group;
Cisplatin: 4 mg/kg, volume of injection was 0.1 mL/10 g, i.p, administration once every 5 days, three weeks in total;
Cisplatin group: 4 mg/kg, volume of injection was 0.1 mL/10 g, i.p, administration once every 5 days, three weeks in total;
Blank group: 0.9% sodium chloride injection, mode of administration was same as DHA group.
3.1.3 Naked mice were inoculated subcutaneously at the right side of back, 0.1 mL/mouse, i.e. each naked mouse was inoculated 2×10^6 cells;
3.2.1 When tumors grew to about 100 mm^3, 36 naked mice with similar tumor volume and good shape were selected from 70 naked mice, and divided into 6 groups with 6 animals in each group.
The mixture was refrigerated at 4° C. when not used. […] 4 mL of 0.6 mg/mL cisplatin solution were measured and added with 2.0 mL physiological saline to formulate a 0.4 mg/mL (4 mg/kg) cisplatin solution. The solution was refrigerated at 4° C. when not used.
The tumor volume and body weight were measured three times per week from the first day of administration. Naked mice were sacrificed on 22th day. The tumors were taken out, weighed and photographed. The tumor inhibition rate was calculated.
The calculation formula is: TV=½×a×b^2, where a and b represents length and width, respectively.
The calculation formula is: RTV=TVt/TV1, where TV1 is a tumor volume when being caged and administrated (i.e., d1), TVt is a tumor volume at each measurement.
The calculation formula is: […]
TRTV: RTV of treatment group; CRTV: RTV of blank control group.
TTW: tumor weight of treatment group; CTW: tumor weight of blank control group; TW: tumor weight.

[23] = Homo sapiens, 72 h, read-out: IC50 calculated based on the concentration of dihydroxyacetone
[24] = H460 tumor naked mice, cisplatin 4 mg/kg i.p. once every 5 days, DHA p.o. 0.1 mL/10 g bid
[25] = D20, H460 tumor naked mice, cisplatin 4 mg/kg i.p. once every 5 days, DHA p.o. 0.1 mL/10 g bid
[26] = cisplatin 4 mg/kg i.p. once every 5 days, DHA p.o. 0.1 mL/10 g bid

O=C(CO)CO [Dihydroxyacetone, 1,3-dihydroxyacetone]
IC50 ([1]; Homo sapiens, HepG2, 72 h, read-out: IC50 calculated based on the concentration of dihydroxyacetone): 12100 µM | IC50 [2, 23]: 1810 µM | IC50 ([3]; Homo sapiens, Lymphocyte, 72 h, read-out: IC50 calculated based on the concentration of dihydroxyacetone): 12100 µM | IC50 ([4]; Homo sapiens, Bel-7402, 72 h, read-out: IC50 calculated based on the concentration of dihydroxyacetone): 6820 µM | IC50 ([5]; Homo sapiens, RPMI-8226, 72 h, read-out: IC50 calculated based on the concentration of dihydroxyacetone): 1810 µM | IC50 ([6]; Homo sapiens, SMMC-7721, 72 h, read-out: IC50 calculated based on the concentration of dihydroxyacetone): 5090 µM | IC50 ([7]; Homo sapiens, SW480, 72 h, read-out: IC50 calculated based on the concentration of dihydroxyacetone): 7950 µM | IC50 ([8]; Homo sapiens, T-24, 72 h, read-out: IC50 calculated based on the concentration of dihydroxyacetone): 7670 µM | IC50 ([9]; Homo sapiens, A549, 72 h, read-out: IC50 calculated based on the concentration of dihydroxyacetone): 4390 µM | IC50 ([10]; Homo sapiens, n=4, read-out: IC50 calculated based on the concentration of dihydroxyacetone): 3620 µM | IC50 ([11]; Homo sapiens, A-431, 72 h, read-out: IC50 calculated based on the concentration of dihydroxyacetone): 5640 µM | IC50 ([12]; Homo sapiens, A-375, 72 h, read-out: IC50 calculated based on the concentration of dihydroxyacetone): 6180 µM | IC50 ([13]; Homo sapiens, A673, 72 h, read-out: IC50 calculated based on the concentration of dihydroxyacetone): 3770 µM | IC50 ([14]; Homo sapiens, PANC-1, 72 h, read-out: IC50 calculated based on the concentration of dihydroxyacetone): 7360 µM | IC50 ([15]; Homo sapiens, A2780, 72 h, read-out: IC50 calculated based on the concentration of dihydroxyacetone): 10600 µM | IC50 [16, 23]: 7510 µM | IC50 ([17]; Homo sapiens, U-87 MG, 72 h, read-out: IC50 calculated based on the concentration of dihydroxyacetone): 9210 µM | IC50 ([18]; Homo sapiens, Calu-6, 72 h, read-out: IC50 calculated based on the concentration of dihydroxyacetone): 11000 µM | IC50 ([19]; Homo sapiens, HCC1937, 72 h, read-out: IC50 calculated based on the concentration of dihydroxyacetone): 10200 µM | IC50 ([20]; Homo sapiens, HT-29, 72 h, read-out: IC50 calculated based on the concentration of dihydroxyacetone): 4370 µM | IC50 ([21]; Homo sapiens, TF-1, 72 h, read-out: IC50 calculated based on the concentration of dihydroxyacetone): 4890 µM | TV (mm^3) D1 ([22]; H460 tumor naked mice): 90.47 ± 9.91 mm^3 | Body weight (g) D1 [22, 24]: 21.4 ± 0.7 g | Body weight (g) D20 [22, 25]: 23.7 ± 1.3 g | TV (mm^3) D20 [22, 25]: 2300.4 ± 585.1 mm^3 | RTV D20 (relative tumor volume) ([22]; D20, RTV=TVt/TV1, cisplatin 4 mg/kg i.p. once every 5 days, DHA p.o. 0.1 mL/10 g bid): 25.5 ± 6.2 | Effect of tumor inhibition ([22]; H460 tumor naked mice): did not exhibit a significant effect of tumor inhibition | T/C (%) relative tumor proliferation rate ([22]; final, vs blank control group RTV, cisplatin 4 mg/kg i.p. once every 5 days, DHA p.o. 0.1 mL/10 g bid): 142.0% | Toxic reaction ([22]; mouse, in vivo): no toxic reaction | Tumor Weight TW [22, 26]: 1.76 ± 0.44 g | Tumor Weight Inhibition Rate IR (%) [22, 26]: −50.6%

N.N.[Cl][Pt][Cl] [DDP, cis-diammine platinum dichloride, reference compound]
IC50 ([1]; HepG2, 72 hours, n=4, read-out: IC50): 13.9 µM | IC50 ([2]; 72 hours, n=4, read-out: IC50): 2.89 µM | IC50 ([3]; WIL2-S, 72 hours, n=4, read-out: IC50): 9.89 µM | IC50 ([4]; BEL-7402, 72 hours, n=4, read-out: IC50): 5.37 µM | IC50 ([5]; RPMI8226, 72 hours, n=4, read-out: IC50): 5.79 µM | IC50 ([6]; SMMC-7721, 72 hours, n=4, read-out: IC50): 6.19 µM | IC50 ([7]; SW480, 72 hours, n=4, read-out: IC50): 16.7 µM | IC50 ([8]; T24, 72 hours, n=4, read-out: IC50): 6.22 µM | IC50 ([9]; A549, 72 hours, n=4, read-out: IC50): 4.1 µM | IC50 ([10]; n=4, read-out: IC50): 9.72 µM | IC50 ([11]; A431, 72 hours, n=4, read-out: IC50): 9.29 µM | IC50 ([12]; A375, 72 hours, n=4, read-out: IC50): 8.25 µM | IC50 ([13]; A673, 72 hours, n=4, read-out: IC50): 1.11 µM | IC50 ([14]; PANC-1, 72 hours, n=4, read-out: IC50): 22.4 µM | IC50 ([15]; A2780, 72 hours, n=4, read-out: IC50): 32.2 µM | IC50 ([16]; 72 hours, n=4, read-out: IC50): 2 µM | IC50 ([17]; U87MG, 72 hours, n=4, read-out: IC50): 24 µM | IC50 ([18]; Calu-6, 72 hours, n=4, read-out: IC50): 220 µM | IC50 ([19]; HCC1937, 72 hours, n=4, read-out: IC50): 14.8 µM | IC50 ([20]; HT29, 72 hours, n=4, read-out: IC50): 48.6 µM | IC50 ([21]; TF1-α, 72 hours, n=4, read-out: IC50): 3.76 µM | TV (mm^3) D1 ([22]; H460 tumor naked mice): 90.30 ± 5.61 mm^3 | Body weight (g) D1 [22, 24]: 21.1 ± 0.9 g | Body weight (g) D20 [22, 25]: 17.6 ± 0.7 g | TV (mm^3) D20 [22, 25]: 972.1 ± 289.5 mm^3 | Body temperature ([22]; H460 tumor naked mice): decreased | Effect of tumor inhibition ([22]; H460 tumor naked mice): significant effect of tumor inhibition | Body weight during the whole test ([22]; H460 tumor naked mice, whole test): decreased significantly | Body weight decrease at the end of the test ([22]; end of the test, H460 tumor naked mice): about 16.7% | Tumor Weight TW [22, 26]: 0.65 ± 0.23 g | Tumor Weight Inhibition Rate IR (%) [22, 26]: 44.6%
